Results taken from BindingDB's records for doi:10.1007/s002100000327 (Leicester Royal Infirmary, 2001).

Experiments:
[1] = target: Delta-type opioid receptor (Homo sapiens, UniProt P41143)
[2] = target: Kappa-type opioid receptor (Homo sapiens, UniProt P41145)
[3] = target: Mu-type opioid receptor (Homo sapiens, UniProt P35372)
Sequence of Mu-type opioid receptor (P35372 whole entry): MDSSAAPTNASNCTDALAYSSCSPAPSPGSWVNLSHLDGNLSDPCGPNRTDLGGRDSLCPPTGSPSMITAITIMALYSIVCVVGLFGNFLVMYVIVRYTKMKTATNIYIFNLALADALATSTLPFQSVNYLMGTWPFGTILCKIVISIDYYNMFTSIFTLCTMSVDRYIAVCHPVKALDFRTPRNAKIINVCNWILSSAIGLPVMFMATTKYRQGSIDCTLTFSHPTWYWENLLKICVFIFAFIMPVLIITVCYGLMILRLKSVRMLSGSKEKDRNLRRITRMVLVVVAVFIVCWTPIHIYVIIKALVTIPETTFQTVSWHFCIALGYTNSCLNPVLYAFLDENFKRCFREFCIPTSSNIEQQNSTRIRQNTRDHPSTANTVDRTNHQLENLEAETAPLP

Sequence of Kappa-type opioid receptor (P41145 whole entry): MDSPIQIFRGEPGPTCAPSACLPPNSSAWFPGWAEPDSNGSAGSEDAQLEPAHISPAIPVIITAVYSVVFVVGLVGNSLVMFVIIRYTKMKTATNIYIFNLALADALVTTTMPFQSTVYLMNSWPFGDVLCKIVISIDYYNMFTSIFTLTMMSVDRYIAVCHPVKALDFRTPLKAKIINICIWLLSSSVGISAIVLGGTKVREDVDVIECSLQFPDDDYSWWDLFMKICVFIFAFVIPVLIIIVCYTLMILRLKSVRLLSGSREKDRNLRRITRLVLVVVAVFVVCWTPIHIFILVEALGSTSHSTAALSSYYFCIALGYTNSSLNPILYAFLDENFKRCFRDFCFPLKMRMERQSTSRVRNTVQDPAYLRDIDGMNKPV
Sequence of Delta-type opioid receptor (P41143 whole entry): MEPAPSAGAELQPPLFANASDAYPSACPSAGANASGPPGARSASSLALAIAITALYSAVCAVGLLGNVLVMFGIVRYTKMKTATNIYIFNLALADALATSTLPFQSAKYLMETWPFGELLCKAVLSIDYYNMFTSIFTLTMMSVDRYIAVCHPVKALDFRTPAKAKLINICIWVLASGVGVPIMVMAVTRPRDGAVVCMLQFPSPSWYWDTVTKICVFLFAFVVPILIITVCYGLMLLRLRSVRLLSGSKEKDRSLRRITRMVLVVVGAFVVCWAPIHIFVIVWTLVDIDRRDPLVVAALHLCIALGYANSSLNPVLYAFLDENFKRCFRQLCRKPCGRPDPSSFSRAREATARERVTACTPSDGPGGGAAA

Row | SMILES | Ki [1] [nM] | Ki [2] [nM] | Ki [3] [nM]
1 | CC(=O)N[C@@H](CCCN=C(N)N)C(=O)N[C@H](CC1CCCCC1)C(=O)N[C@H]1CC[C@@H]2SC[C@@H](C(=O)N[C@H](CCCN=C(N)N)C(=O)N[C@H](Cc3ccc(Cl)cc3)C(N)=O)N2C1=O [NOCICEPTIN RECEPTOR ANTAGONIST PEPTIDE III-BTD] | 60.3 | 11.5 | 8.91
2 | C[C@H](NC(=O)CNC(=O)[C@@H](NC(=O)[C@H](Cc1ccccc1)NC(=O)CNC(=O)CNC(=O)CNCc1ccccc1)[C@@H](C)O)C(=O)N[C@@H](CCCN=C(N)N)C(=O)N[C@@H](CCCCN)C(=O)N[C@@H](CO)C(=O)N[C@@H](C)C(=O)N[C@@H](CCCN=C(N)N)C(=O)N[C@@H](CCCCN)C(N)=O [H-PHE-(R)-GLY-GLY-PHE-THR-GLY-ALA-ARG-LYS-SER-ALA-ARG-LYS-NH2] | > 10000 | 1100 | > 10000
